Experimental findings from PubChem BioAssay (NCI) are described below.

Several values for one entry are separate records, joined by “and”; a condition that tells them apart may be missing. Equal entries are not always repeated.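 Exposure lasted 48 hours, with cells grown in 96-well plates and compounds tested at five concentrations. Here, GI50 denotes the concentration required for 50% inhibition of growth. TGI: total growth inhibition.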 Bounds are passed on as bounds.

What all share (assay): NCI-60 cell line screen, 48 h
Experiment [1] deals with CCRF-CEM leukemia.
Experiment [2] has as its system UACC-62 melanoma.
Experiment [3] deals with HS 578T breast.
Experiment [4] has as its system TK-10 renal.
For experiment [5], the system named is RXF 393 renal.
For experiment [6], the system named is K-562 leukemia.
The test system of experiment [7] is SW-620 colon.
Experiment [8] deals with HCT-15 colon.
Experiment [9] relates to RPMI-8226 leukemia.
Experiment [10] has as its system SNB-19 CNS.

Consider `N#Cc1ccc(-c2ccc(Cl)cc2)n(C2OC(CO)C(O)C(O)C2O)c1=S` (centres undefined), for which the GI50 in [1] is over 100 µM; in [4], > 100 µM and 49 µM; in experiment [5], > 100 µM and 18.7 µM; in experiment [10] it was > 100 µM and 26.4 µM. In addition, the TGI in experiment [1] is over 100 µM; in [2], over 100 µM; in experiment [3], over 100 µM; in experiment [4], over 100 µM; in [5] it was > 100 µM and 51 µM; in experiment [6], over 100 µM. The TGI in experiment [7], in experiment [8], in experiment [9] and in experiment [10] was over 100 µM each time.

As to `O=C(O)C(Cc1ccccc1)Cc1ccccc1`, the TGI in experiment [1], in experiment [2], in experiment [3], in [4], in experiment [5] and in experiment [6] was over 100 µM each time. The TGI in [7], in experiment [8], in [9] and in [10] was over 100 µM throughout.

`O=C(CCCCCNC(=O)c1ccc(Cl)cc1)NO`: the TGI was over 100 µM in [1]; 12.1 µM in [2]; over 100 µM in experiment [3]; 16.4 µM in experiment [4]; 19.8 µM in experiment [5]; over 100 µM in [6]. For the same compound, the TGI in experiment [7], in experiment [8], in experiment [9] and in experiment [10] was over 100 µM in each case.

Take `Cc1ccc2sc3c(NCCCN)nc4ccccc4c3c(=O)c2c1`: the GI50 is 2.32 µM in experiment [1]; 1.74 µM in [2]; 2.05 µM in experiment [3]; 1.81 µM in experiment [4]; 1.52 µM in experiment [5]; 2 µM in experiment [6]. The GI50 is 1.79 µM in experiment [7], 1.61 µM in experiment [8], 2.41 µM in experiment [9] and 1.86 µM in [10]. In addition, the TGI in experiment [1] was 5.61 µM; in experiment [2] it was 3.24 µM; in experiment [3], 5.19 µM; in [4] it was 3.52 µM; in [5], 3.02 µM; in [6], 4.51 µM. Moreover, the TGI in experiment [7] is 3.54 µM; in experiment [8], 3.15 µM; in experiment [9], 5.5 µM; in experiment [10], 3.69 µM.

Consider `CC1(C)CCCCCC(O)C(O)CCC(C)(C)C1=O` (centres undefined), for which the TGI in experiment [1], in [2], in experiment [3], in [4], in experiment [5] and in experiment [6] was over 100 µM throughout. The TGI in experiment [7], in experiment [8], in experiment [9] and in experiment [10] was over 100 µM in each case.

With `O=S(=O)(O)c1ccc(O)c(N=Nc2c(O)ccc3ccccc23)c1`, the TGI was 86.9 µM in experiment [1]; over 100 µM in experiment [2]; over 100 µM in [3]; over 100 µM in experiment [4]; over 100 µM in [5]; over 100 µM in [6]. Besides, the TGI in experiment [7], in experiment [8], in experiment [9] and in experiment [10] was over 100 µM in each case.

As for `CSc1nnnc2ccccc12`, the TGI in experiment [1], in experiment [2], in experiment [3], in experiment [4], in [5] and in experiment [6] was over 100 µM throughout. Also, the TGI in [7], in experiment [8], in [9] and in experiment [10] was over 100 µM in each case.

`CCCCCCCCCCCC(=O)N(CCCCCCCCC)CC(O)C(O)C(OC1OC(CO)C(O)C(O)C1O)C(O)CO` (centres undefined): the TGI in [1] was 41 µM; in [2], 34.1 µM; in [3], over 100 µM; in experiment [4] it was 29.8 µM; in experiment [5], 50 µM; in [6], 50.2 µM. The TGI in experiment [7] turned out to be 35.1 µM; in experiment [8], 34.5 µM; in experiment [9], 57.1 µM; in experiment [10] it was 40.4 µM.

Turning to `CCOC(=O)c1ccc2nc3n(c2c1)C(c1c(F)cccc1F)SC3` (centres undefined), the TGI in experiment [1], in [2], in experiment [3], in experiment [4], in [5] and in experiment [6] was over 100 µM in each case. For the same compound, the TGI in experiment [7], in experiment [8], in [9] and in experiment [10] was over 100 µM throughout.

On to `C[Si](C)(C)OC1(C#N)c2ccccc2CCCC12CCCC2` (centres undefined), for which the TGI in experiment [1] was 46 µM; in experiment [2], over 100 µM; in experiment [3], over 100 µM; in experiment [4], over 100 µM; in experiment [5], 88.1 µM; in experiment [6], over 100 µM. The TGI in experiment [7] is over 100 µM; in experiment [8], over 100 µM; in experiment [9], 51.5 µM; in experiment [10] it was over 100 µM.

With `CC1CN(c2cc3c(cc2F)c(=O)c(C(=O)O)cn3-c2ccc(N3CCN(C)CC3)cn2)CC(C)N1` (centres undefined), the TGI in [1], in experiment [2], in [3], in [4], in experiment [5] and in experiment [6] was over 100 µM throughout. Further, the TGI in [7], in experiment [8], in experiment [9] and in experiment [10] was over 100 µM each time.

For the compound `NC(=Nc1ccccc1)N/N=C/c1c[nH]c2ccccc12`, the TGI in [1] was 41 µM; in experiment [2], 6.84 µM; in experiment [3] it was 2.17 µM; in experiment [4] it was 18.9 µM; in experiment [5], 0.701 µM; in [6] it was 30.4 µM. Further, the TGI came to 5.02 µM in experiment [7], 10.1 µM in experiment [8], 46 µM in [9] and 14.8 µM in [10].

`COC(=O)NC(Cc1ccccc1)NC(=O)OC(C)(C)C` (centres undefined): the TGI in experiment [1], in [2], in experiment [3], in experiment [4], in experiment [5] and in experiment [6] was over 100 µM each time. Moreover, the TGI in experiment [7], in experiment [8], in experiment [9] and in experiment [10] was over 100 µM each time.

On to `CCN(CC)/N=C\c1c2ccccc2cc2ccccc12`, for which the TGI in experiment [1] is 94.4 µM; in experiment [2], over 100 µM; in experiment [3], over 100 µM; in experiment [4] it was over 100 µM; in experiment [5], 57.3 µM; in experiment [6] it was over 100 µM. Besides, the TGI in experiment [7] was over 100 µM; in experiment [8], over 100 µM; in experiment [9] it was 77.1 µM; in experiment [10] it was over 100 µM.

Regarding `N=C1C=CC(=C(c2ccc(N)cc2)c2ccc(N)cc2)C=C1`, the TGI turned out to be 19.5 µM in [1]; 15.3 µM in experiment [2]; 8.18 µM in experiment [3]; 28.1 µM in [4]; 23 µM in [5]; 27.1 µM in experiment [6]. Moreover, the TGI was determined as 19.2 µM in experiment [7], 53.3 µM in experiment [8], 18.4 µM in experiment [9] and 18.6 µM in experiment [10].

Turning to `Clc1nc2nc(N3CCNCC3)nc(N3CCCC3)c2[nH]1`, the TGI in experiment [1] was 41 µM; in experiment [2], 31.8 µM; in experiment [3], over 100 µM; in experiment [4], over 100 µM; in [5], 27.9 µM; in [6], 52.7 µM. Moreover, the TGI turned out to be 45.4 µM in [7], 35.3 µM in experiment [8], 48 µM in experiment [9] and 31.8 µM in experiment [10].

`N=C(N)SCc1nc(-c2ccc(Cl)cc2)no1`: the TGI in [1] is 31.8 µM; in experiment [2] it was 24.4 µM; in [3] it was over 100 µM; in [4] it was 40.8 µM; in [5], 25 µM; in experiment [6], 41.9 µM. Besides, the TGI is 37.2 µM in [7], 55.9 µM in [8], 26.8 µM in experiment [9] and over 100 µM in experiment [10].

As to `C=CC(=O)N1C/C(=C\c2ccc(OC)cc2)C(=O)/C(=C/c2ccc(OC)cc2)C1`, the TGI in [1] is over 25.7 µM; in experiment [2] it was 4.37 µM; in experiment [3], over 28.7 µM; in experiment [4] it was over 36.1 µM; in [5] it was 3.23 µM; in [6], over 100 µM. Besides, the TGI in [7] is 8.02 µM; in experiment [8], 4.23 µM; in experiment [9], over 100 µM; in experiment [10], 28.3 µM.
